Test system: D2/3R
Assay: Kinetic analysis of PET data (1TCM, 2TCM, Logan, SRTM);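 for 2TCM BPND change relative to control: Raclopride 1 mg/kg intravenous pretreatment versus saline controls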;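 for SRTM BPND change relative to control: Raclopride 1 mg/kg intravenous pretreatment versus saline controls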
Type: in vivo, Sprague-Dawley rats
Parameters: key to SRTM BPND / 1TCM BPND / 2TCM BPND (VT-based): BPND = VT(target)/VT(cerebellum) − 1 (or SRTM, cerebellum reference); SRTM BPND change relative to control / 1TCM BPND change relative to control / 2TCM BPND change relative to control / Logan BPND change relative to control: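 Raclopride 1 mg/kg intravenous pretreatment versus saline controls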; 1TCM VT / 2TCM VT: unit not given here
Experimental: Kinetic analysis is described using the nomenclature proposed by Innis et al.. ROI TACs of [^18F]FEt-AMC13 were analyzed with one-tissue and two-tissue compartmental models of reversible binding (1TCM and 2TCM, respectively) to obtain individual rate constants. From these, the regional distribution volumes (VT) were calculated and compared to those obtained with Logan graphical analysis. Binding potentials (BPND) were calculated from the distribution ratios as VT (target) / VT (cerebellum) – 1, or estimated with the simplified reference tissue model (SRTM) using the cerebellum as reference region.
Metabolite-corrected plasma-derived arterial input function and whole blood time-activity curve were used for Logan, 1TCM, and 2TCM analyses. Fractional cerebral blood volume was set to 3.6 % [27]. For one rat in the raclopride-treated group, no input curves could be obtained; therefore, its PET data were only analyzed with SRTM.
Degree of D2/3R-specific binding of the tracers was characterized by BPND (as given above) or the specific binding ratio (SBR) given as target region activity/cerebellar activity - 1. Both were calculated under control conditions and in response to the raclopride challenge.

[1] = Cortex, raclopride, listed as [18F]FEt-AMC13
[2] = Hippocampus, raclopride, listed as [18F]FEt-AMC13
[3] = Hypothalamus, control rat A, SD could not be estimated

In the case of Oc1ccc2c(c1)O[C@@H](CNCc1ccc(OCC[18F])cc1)CC2 [[^18F]FEt-AMC13], the “2TCM k2” value (Cortex, control rat C) is reported as 0.19 ± 1.58 min⁻¹, the “2TCM k3” value (Cortex, control rat C) is reported as 1.50 ± 19.49 min⁻¹ and the “2TCM k4” value (Cortex, control rat C) is reported as 1.00 ± 1.64 min⁻¹. For the same compound, the “1TCM K1” value (Cortex, control rat D) was 0.47 ± 0.02 mL/g/min, the “1TCM k2” value (Cortex, control rat D) was 0.09 ± 0.01 min⁻¹ and the “2TCM K1” value (Cortex, control rat D) was 1.46 ± 0.45 mL/g/min. For the same compound, the “2TCM k2” value (Cortex, control rat D) was 6.65 ± 0.77 min⁻¹, the “2TCM k3” value (Cortex, control rat D) was 2.62 ± 1.18 min⁻¹ and the “2TCM k4” value (Cortex, control rat D) was 0.11 ± 6.33 min⁻¹. The “1TCM BPND” value (Cortex, raclopride) was 0.17±0.05, the “1TCM BPND change relative to control” value (Cortex, raclopride) was -9% and the “1TCM VT” value (Cortex, raclopride) was 5.17±0.60. For the same compound, the “2TCM BPND (VT-based)” value (Cortex, raclopride) was 0.10 ± 0.02, the “2TCM BPND change relative to control” value (Cortex, raclopride) was −27% and the “2TCM VT” value (Cortex, raclopride) was 5.45±0.52. For the same compound, the “Logan BPND” value (Cortex, raclopride) was 0.09±0.03, the “Logan BPND change relative to control” value (Cortex, raclopride) was -32% and the “Logan VT” value (Cortex, raclopride) was 5.42±0.44. For the same compound, the “SRTM BPND” value (Cortex, raclopride) was 0.08 ± 0.02, the “SRTM BPND change relative to control” value (Cortex, raclopride) was −24% and the “2TCM BPND (VT-based)” value [1] was 0.10±0.02. For the same compound, the “2TCM BPND change relative to control” value [1] was -27%, the “SRTM BPND” value [1] was 0.08±0.02 and the “SRTM BPND change relative to control” value [1] was “–24%”. The “1TCM BPND” value (Hippocampus, control) was 0.35±0.11, the “1TCM VT” value (Hippocampus, control) was 6.34±0.71 and the “2TCM BPND (VT-based)” value (Hippocampus, control) was 0.30 ± 0.07. The “2TCM VT” value (Hippocampus, control) was 6.62±0.86, the “Logan BPND” value (Hippocampus, control) was 0.28±0.04 and the “Logan VT” value (Hippocampus, control) was 6.49±0.88. The “SRTM BPND” value (Hippocampus, control) was 0.26 ± 0.04, the “1TCM K1” value (Hippocampus, control rat A) was 0.41 ± 0.02 mL/g/min and the “1TCM k2” value (Hippocampus, control rat A) was 0.06 ± 0.01 min⁻¹. The “2TCM K1” value (Hippocampus, control rat A) was 2.21 ± 1.25 mL/g/min, the “2TCM k2” value (Hippocampus, control rat A) was 8.56 ± 3.62 min⁻¹ and the “2TCM k3” value (Hippocampus, control rat A) was 1.60 ± 2.24 min⁻¹. For the same compound, the “2TCM k4” value (Hippocampus, control rat A) was 0.05 ± 8.88 min⁻¹, the “1TCM K1” value (Hippocampus, control rat B) was 0.51 ± 0.02 mL/g/min and the “1TCM k2” value (Hippocampus, control rat B) was 0.08 ± 0.01 min⁻¹. For the same compound, the “2TCM K1” value (Hippocampus, control rat B) was 0.71 ± 0.07 mL/g/min, the “2TCM k2” value (Hippocampus, control rat B) was 0.50 ± 0.23 min⁻¹ and the “2TCM k3” value (Hippocampus, control rat B) was 0.50 ± 0.27 min⁻¹. For the same compound, the “2TCM k4” value (Hippocampus, control rat B) was 0.14 ± 0.03 min⁻¹, the “1TCM K1” value (Hippocampus, control rat C) was 0.46 ± 0.01 mL/g/min and the “1TCM k2” value (Hippocampus, control rat C) was 0.08 ± 0.004 min⁻¹. The “2TCM K1” value (Hippocampus, control rat C) was 0.60 ± 0.12 mL/g/min, the “2TCM k2” value (Hippocampus, control rat C) was 0.57 ± 0.77 min⁻¹ and the “2TCM k3” value (Hippocampus, control rat C) was 1.17 ± 1.34 min⁻¹. The “2TCM k4” value (Hippocampus, control rat C) was 0.24 ± 0.09 min⁻¹, the “1TCM K1” value (Hippocampus, control rat D) was 0.48 ± 0.02 mL/g/min and the “1TCM k2” value (Hippocampus, control rat D) was 0.08 ± 0.01 min⁻¹. For the same compound, the “2TCM K1” value (Hippocampus, control rat D) was 101 ± 14615 mL/g/min, the “2TCM k2” value (Hippocampus, control rat D) was 1246 ± 181990 min⁻¹ and the “2TCM k3” value (Hippocampus, control rat D) was 5.49 ± 4.23 min⁻¹. For the same compound, the “2TCM k4” value (Hippocampus, control rat D) was 0.07 ± 0.05 min⁻¹, the “1TCM BPND” value (Hippocampus, raclopride) was 0.33±0.09 and the “1TCM BPND change relative to control” value (Hippocampus, raclopride) was -8%. For the same compound, the “1TCM VT” value (Hippocampus, raclopride) was 5.88±0.56, the “2TCM BPND (VT-based)” value (Hippocampus, raclopride) was 0.26 ± 0.06 and the “2TCM BPND change relative to control” value (Hippocampus, raclopride) was −13%. The “2TCM VT” value (Hippocampus, raclopride) was 6.27±0.63, the “Logan BPND” value (Hippocampus, raclopride) was 0.25±0.05 and the “Logan BPND change relative to control” value (Hippocampus, raclopride) was -10%. For the same compound, the “Logan VT” value (Hippocampus, raclopride) was 6.25±0.56, the “SRTM BPND” value (Hippocampus, raclopride) was 0.23 ± 0.05 and the “SRTM BPND change relative to control” value (Hippocampus, raclopride) was −13%. The “2TCM BPND (VT-based)” value [2] was 0.26±0.06, the “2TCM BPND change relative to control” value [2] was -13% and the “SRTM BPND” value [2] was 0.23±0.05. The “SRTM BPND change relative to control” value [2] was “–13%”, the “1TCM BPND” value (Hypothalamus, control) was 0.25±0.04 and the “1TCM VT” value (Hypothalamus, control) was 5.86±0.60. The “2TCM BPND (VT-based)” value (Hypothalamus, control) was 0.22 ± 0.03, the “2TCM VT” value (Hypothalamus, control) was 6.20±0.55 and the “Logan BPND” value (Hypothalamus, control) was 0.21±0.04. The “Logan VT” value (Hypothalamus, control) was 6.10±0.44, the “SRTM BPND” value (Hypothalamus, control) was 0.21 ± 0.03 and the “1TCM K1” value (Hypothalamus, control rat A) was 0.40 ± 0.03 mL/g/min. The “1TCM k2” value (Hypothalamus, control rat A) was 0.06 ± 0.01 min⁻¹, the “2TCM K1” value [3] was 273 mL/g/min and the “2TCM k2” value [3] was 1355 min⁻¹. The “2TCM k3” value [3] was 1.65 min⁻¹, the “2TCM k4” value [3] was 0.05 min⁻¹ and the “1TCM K1” value (Hypothalamus, control rat B) was 0.53 ± 0.03 mL/g/min. For the same compound, the “1TCM k2” value (Hypothalamus, control rat B) was 0.09 ± 0.01 min⁻¹, the “2TCM K1” value (Hypothalamus, control rat B) was 1.17 ± 0.88 mL/g/min and the “2TCM k2” value (Hypothalamus, control rat B) was 3.45 ± 1.30 min⁻¹. The “2TCM k3” value (Hypothalamus, control rat B) was 2.22 ± 6.73 min⁻¹, the “2TCM k4” value (Hypothalamus, control rat B) was 0.13 ± 14.19 min⁻¹ and the “1TCM K1” value (Hypothalamus, control rat C) was 0.50 ± 0.02 mL/g/min. For the same compound, the “1TCM k2” value (Hypothalamus, control rat C) was 0.08 ± 0.01 min⁻¹, the “2TCM K1” value (Hypothalamus, control rat C) was 0.64 ± 0.24 mL/g/min and the “2TCM k2” value (Hypothalamus, control rat C) was 0.63 ± 1.60 min⁻¹. For the same compound, the “2TCM k3” value (Hypothalamus, control rat C) was 1.37 ± 2.85 min⁻¹, the “2TCM k4” value (Hypothalamus, control rat C) was 0.27 ± 0.20 min⁻¹ and the “1TCM K1” value (Hypothalamus, control rat D) was 0.59 ± 0.04 mL/g/min. The “1TCM k2” value (Hypothalamus, control rat D) was 0.12 ± 0.02 min⁻¹, the “2TCM K1” value (Hypothalamus, control rat D) was 680 ± 116990 mL/g/min and the “2TCM k2” value (Hypothalamus, control rat D) was 3105 ± 534810 min⁻¹. The “2TCM k3” value (Hypothalamus, control rat D) was 2.16 ± 0.48 min⁻¹.
